This is an account of results in PubChem BioAssay AID1845209 (Molecular Pharmacology Branch, DTP, NCI, 2023).

For orientation: IC50 means the concentration that gives 50% inhibition. For orientation: viability, T/C means the result in the treated group divided by that in the control group, in per cent.

The test system of this assay is NCI-H211 tumor spheroids, viability percent test/control. Briefly: Anticancer human tumor NCI-H211 cell line growth inhibition.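 As to all read-outs here: spheroids exposed to agents for seven days before readout.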 The settings on record: spheroids with HUVEC and MSC; for IC50: curve of first compound; for viability, T/C: stronger effect = lower value. An outline of the steps: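 Complex spheroids of malignant cells with endothelial cells and mesenchymal stem cells; agents alone or combined, from near clinical Cmax (or 10 microM if unknown) down in half-log steps, 0.25% DMSO final.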

In the case of `COc1cc(C)[nH]c(=O)c1CN1CCc2c(Cl)cc(C(OC)C3COC3)c(Cl)c2C1=O` (configuration not stated) + Cn1nnc2c(C(N)=O)ncn2c1=O, the IC50 was more than 10000 nM (second compound 1 µM); more than 10000 nM (second compound 3.16 µM); more than 10000 nM (second compound 10 µM); 1330 nM (second compound 31.6 µM); less than 31.6 nM (second compound 100 µM). In addition, the viability, T/C reads like this: (second compound 1 µM, first compound 0.0316 µM) 92.7%; (second compound 1 µM, first compound 0.1 µM) 90.4%; (second compound 1 µM, first compound 0.316 µM) 90.6%; (second compound 1 µM, first compound 1 µM) 82.7%; (second compound 1 µM, first compound 3.16 µM) 81.3%; (second compound 1 µM, first compound 10 µM) 72.8%. Moreover, the viability, T/C is, setting by setting: (second compound 3.16 µM, first compound 0.0316 µM) 92.6%; (second compound 3.16 µM, first compound 0.1 µM) 99.3%; (second compound 3.16 µM, first compound 0.316 µM) 90%; (second compound 3.16 µM, first compound 1 µM) 82.3%; (second compound 3.16 µM, first compound 3.16 µM) 70.2%; (second compound 3.16 µM, first compound 10 µM) 81.5%. Besides, the viability, T/C was 99.8% (second compound 10 µM, first compound 0.0316 µM); 98.7% (second compound 10 µM, first compound 0.1 µM); 86.6% (second compound 10 µM, first compound 0.316 µM); 86.5% (second compound 10 µM, first compound 1 µM); 70.2% (second compound 10 µM, first compound 3.16 µM); 56.1% (second compound 10 µM, first compound 10 µM). The viability, T/C reads like this: (second compound 31.6 µM, first compound 0.0316 µM) 56.4%; (second compound 31.6 µM, first compound 0.1 µM) 54.6%; (second compound 31.6 µM, first compound 0.316 µM) 59.6%; (second compound 31.6 µM, first compound 1 µM) 56.3%; (second compound 31.6 µM, first compound 3.16 µM) 30.8%; (second compound 31.6 µM, first compound 10 µM) 30.8%. Further, the viability, T/C runs as follows: (second compound 100 µM, first compound 0.0316 µM) 31.5%; (second compound 100 µM, first compound 0.1 µM) 33.4%; (second compound 100 µM, first compound 0.316 µM) 19.6%; (second compound 100 µM, first compound 1 µM) 13.8%; (second compound 100 µM, first compound 3.16 µM) 12.6%; (second compound 100 µM, first compound 10 µM) 12%.
For `Cc1sc2c(c1C)C(c1ccc(Cl)cc1)=NC(CC(=O)Nc1ccc(O)cc1)c1nnc(C)n1-2` (configuration not stated) + COc1cc2c(cc1O)CCNC21CSC2c3c(OC(C)=O)c(C)c4c(c3C(COC1=O)N1C(O)C3Cc5cc(C)c(OC)c(O)c5C(C21)N3C)OCO4, the IC50 (second compound 30 pM) was less than 9.49 nM; the IC50 (second compound 94.9 pM) was less than 9.49 nM; the IC50 (second compound 0.0003 µM) is less than 9.49 nM; the IC50 (second compound 0.000949 µM) was less than 9.49 nM; the IC50 (second compound 0.003 µM) was less than 9.49 nM. Further, the viability, T/C (second compound 30 pM, first compound 0.00949 µM) is 45.6%; the viability, T/C (second compound 30 pM, first compound 0.03 µM) is 4.36%; the viability, T/C (second compound 30 pM, first compound 0.0949 µM) was 0.66%; the viability, T/C (second compound 30 pM, first compound 0.3 µM) was 0.42%; the viability, T/C (second compound 30 pM, first compound 0.949 µM) is 0.31%; the viability, T/C (second compound 30 pM, first compound 3 µM) is 0.33%. Also, the viability, T/C was 4.74% (second compound 94.9 pM, first compound 0.00949 µM); 0.91% (second compound 94.9 pM, first compound 0.03 µM); 0.53% (second compound 94.9 pM, first compound 0.0949 µM); 0.42% (second compound 94.9 pM, first compound 0.3 µM); 0.33% (second compound 94.9 pM, first compound 0.949 µM); 0.43% (second compound 94.9 pM, first compound 3 µM). The viability, T/C is 0.79% (second compound 0.0003 µM, first compound 0.00949 µM); 0.61% (second compound 0.0003 µM, first compound 0.03 µM); 0.45% (second compound 0.0003 µM, first compound 0.0949 µM); 0.61% (second compound 0.0003 µM, first compound 0.3 µM); 0.4% (second compound 0.0003 µM, first compound 0.949 µM); 0.4% (second compound 0.0003 µM, first compound 3 µM). The viability, T/C reads like this: (second compound 0.000949 µM, first compound 0.00949 µM) 0.76%; (second compound 0.000949 µM, first compound 0.03 µM) 0.61%; (second compound 0.000949 µM, first compound 0.0949 µM) 0.47%; (second compound 0.000949 µM, first compound 0.3 µM) 0.25%; (second compound 0.000949 µM, first compound 0.949 µM) 0.04%; (second compound 0.000949 µM, first compound 3 µM) 0.09%. Besides, the viability, T/C reads like this: (second compound 0.003 µM, first compound 0.00949 µM) 0.1%; (second compound 0.003 µM, first compound 0.03 µM) 0.09%; (second compound 0.003 µM, first compound 0.0949 µM) 0.09%; (second compound 0.003 µM, first compound 0.3 µM) 0.08%; (second compound 0.003 µM, first compound 0.949 µM) 0.1%; (second compound 0.003 µM, first compound 3 µM) 0.3%.
`Cn1nnc2c(C(N)=O)ncn2c1=O`: the viability, T/C reads like this: (compound 1 µM) 98.3% [middle of 10 runs]; (compound 10 µM) 92.8% [middle of 10 runs].
